In the supplement of paper PMC8967900:

What was measured:
Experiment in all cases: selective drug sensitivity score (sDSS, relative to normal bone marrow) (sDSS (score)); higher = more potent and effective on the cell line relative to normal bone marrow cells
Settings in all cases: 72 h
MHH-CALL-3 = tested on: MHH-CALL-3
MOLT-14 = tested on: MOLT-14
COG-LL-402h = tested on: COG-LL-402h
P12-ICHIKAWA = tested on: P12-ICHIKAWA
COG-LL-332h = tested on: COG-LL-332h
PF-382 = tested on: PF-382
SEM cells = tested on: SEM cells
NALM-6 = tested on: NALM-6
HAL-01 = tested on: HAL-01
CCRF-HSB2 = tested on: CCRF-HSB2
COG-LL-355h = tested on: COG-LL-355h
LC4-1 = tested on: LC4-1
ALL-SIL = tested on: ALL-SIL
NALM-16 = tested on: NALM-16
RPMI-8402 = tested on: RPMI-8402
KASUMI-9 = tested on: KASUMI-9
TMD5 = tested on: TMD5
MHH-CALL-4 = tested on: MHH-CALL-4
KARPAS-45 = tested on: KARPAS-45
MHH-CALL-2 = tested on: MHH-CALL-2
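Also: ALL cell lines in 384-well plates, five doses spanning 10,000-fold, each plate scaled between vehicle and 100 µmol/L benzalkonium chloride controls, sDSS an adapted area-under-curve metric.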

CNC(=O)c1ccc(C)c(-n2c(C)cc(OCc3ccc(F)cc3F)c(Br)c2=O)c1 (top concentration 1000 nM)
selective drug sensitivity score (MHH-CALL-3): 0 | selective drug sensitivity score (MOLT-14): 0 | selective drug sensitivity score (COG-LL-402h): 0 | selective drug sensitivity score (P12-ICHIKAWA): 0 | selective drug sensitivity score (COG-LL-332h): 0 | selective drug sensitivity score (PF-382): 0 | selective drug sensitivity score (SEM cells): 1.9 | selective drug sensitivity score (NALM-6): 0.1 | selective drug sensitivity score (HAL-01): 2.6 | selective drug sensitivity score (CCRF-HSB2): 0 | selective drug sensitivity score (COG-LL-355h): 0 | selective drug sensitivity score (LC4-1): 0 | selective drug sensitivity score (ALL-SIL): 0 | selective drug sensitivity score (NALM-16): 0 | selective drug sensitivity score (RPMI-8402): 0 | selective drug sensitivity score (KASUMI-9): 2.3 | selective drug sensitivity score (TMD5): 0 | selective drug sensitivity score (MHH-CALL-4): 5 | selective drug sensitivity score (KARPAS-45): 0 | selective drug sensitivity score (MHH-CALL-2): 4.9

CCNc1nc(Nc2cc(F)c(C(=O)N3CCOCC3)cc2OC)ncc1C(F)(F)F [GNE-7915] (top concentration 1000 nM)
selective drug sensitivity score (MHH-CALL-3): -0.06 | selective drug sensitivity score (MOLT-14): -0.06 | selective drug sensitivity score (COG-LL-402h): -0.06 | selective drug sensitivity score (P12-ICHIKAWA): -0.06 | selective drug sensitivity score (COG-LL-332h): -0.06 | selective drug sensitivity score (PF-382): -0.06 | selective drug sensitivity score (SEM cells): -0.06 | selective drug sensitivity score (NALM-6): -0.06 | selective drug sensitivity score (HAL-01): 1.04 | selective drug sensitivity score (CCRF-HSB2): -0.06 | selective drug sensitivity score (COG-LL-355h): -0.06 | selective drug sensitivity score (LC4-1): -0.06 | selective drug sensitivity score (ALL-SIL): -0.06 | selective drug sensitivity score (NALM-16): -0.06 | selective drug sensitivity score (RPMI-8402): -0.06 | selective drug sensitivity score (KASUMI-9): -0.06 | selective drug sensitivity score (TMD5): 5.44 | selective drug sensitivity score (MHH-CALL-4): -0.06 | selective drug sensitivity score (KARPAS-45): -0.06 | selective drug sensitivity score (MHH-CALL-2): 1.74

COc1cc2c(NC3CCN(C(C)C)CC3)nc(C3CCCCC3)nc2cc1OCCCN1CCCC1 [UNC0638] (top concentration 10000 nM)
selective drug sensitivity score (MHH-CALL-3): 0.86 | selective drug sensitivity score (MOLT-14): -0.94 | selective drug sensitivity score (COG-LL-402h): 1.16 | selective drug sensitivity score (P12-ICHIKAWA): -2.84 | selective drug sensitivity score (COG-LL-332h): 0.66 | selective drug sensitivity score (PF-382): -0.54 | selective drug sensitivity score (SEM cells): -2.94 | selective drug sensitivity score (NALM-6): -3.64 | selective drug sensitivity score (HAL-01): -4.64 | selective drug sensitivity score (CCRF-HSB2): 0.16 | selective drug sensitivity score (COG-LL-355h): 1.86 | selective drug sensitivity score (LC4-1): -2.84 | selective drug sensitivity score (ALL-SIL): 2.16 | selective drug sensitivity score (NALM-16): -3.04 | selective drug sensitivity score (RPMI-8402): -0.04 | selective drug sensitivity score (KASUMI-9): -1.64 | selective drug sensitivity score (TMD5): -4.84 | selective drug sensitivity score (MHH-CALL-4): -3.94 | selective drug sensitivity score (KARPAS-45): 2.36 | selective drug sensitivity score (MHH-CALL-2): -2.84

CCC1(c2ccc(N)cc2)CCC(=O)NC1=O (stereo not given) [Aminoglutethimide] (top concentration 10000 nM)
selective drug sensitivity score (MHH-CALL-3): 0 | selective drug sensitivity score (MOLT-14): 0 | selective drug sensitivity score (COG-LL-402h): 0 | selective drug sensitivity score (P12-ICHIKAWA): 0 | selective drug sensitivity score (COG-LL-332h): 0 | selective drug sensitivity score (PF-382): 0 | selective drug sensitivity score (SEM cells): 0.3 | selective drug sensitivity score (NALM-6): 0 | selective drug sensitivity score (HAL-01): 0 | selective drug sensitivity score (CCRF-HSB2): 0 | selective drug sensitivity score (COG-LL-355h): 0.6 | selective drug sensitivity score (LC4-1): 0 | selective drug sensitivity score (ALL-SIL): 0 | selective drug sensitivity score (NALM-16): 0 | selective drug sensitivity score (RPMI-8402): 0 | selective drug sensitivity score (KASUMI-9): 0.6 | selective drug sensitivity score (TMD5): 0 | selective drug sensitivity score (MHH-CALL-4): 0.5 | selective drug sensitivity score (KARPAS-45): 0 | selective drug sensitivity score (MHH-CALL-2): 2.4

Nc1cccc2c1C(=O)N(C1CCC(=O)NC1=O)C2=O (stereo not given) [Pomalidomide] (top concentration 10000 nM)
selective drug sensitivity score (MHH-CALL-3): -0.26 | selective drug sensitivity score (MOLT-14): -0.26 | selective drug sensitivity score (COG-LL-402h): 0.64 | selective drug sensitivity score (P12-ICHIKAWA): -0.26 | selective drug sensitivity score (COG-LL-332h): -0.26 | selective drug sensitivity score (PF-382): -0.26 | selective drug sensitivity score (SEM cells): 3.64 | selective drug sensitivity score (NALM-6): -0.26 | selective drug sensitivity score (HAL-01): -0.26 | selective drug sensitivity score (CCRF-HSB2): -0.26 | selective drug sensitivity score (COG-LL-355h): 5.24 | selective drug sensitivity score (LC4-1): 4.54 | selective drug sensitivity score (ALL-SIL): -0.26 | selective drug sensitivity score (NALM-16): -0.26 | selective drug sensitivity score (RPMI-8402): -0.26 | selective drug sensitivity score (KASUMI-9): 6.84 | selective drug sensitivity score (TMD5): -0.26 | selective drug sensitivity score (MHH-CALL-4): 7.54 | selective drug sensitivity score (KARPAS-45): -0.26 | selective drug sensitivity score (MHH-CALL-2): -0.16

Cc1nc2cccc(N)c2c(=O)n1C1CCC(=O)NC1=O (stereo not given) [Avadomide (CC122)] (top concentration 10000 nM)
selective drug sensitivity score (MHH-CALL-3): 0 | selective drug sensitivity score (MOLT-14): 0 | selective drug sensitivity score (COG-LL-402h): 0.2 | selective drug sensitivity score (P12-ICHIKAWA): 0 | selective drug sensitivity score (COG-LL-332h): 0 | selective drug sensitivity score (PF-382): 0 | selective drug sensitivity score (SEM cells): 0.9 | selective drug sensitivity score (NALM-6): 0 | selective drug sensitivity score (HAL-01): 1.6 | selective drug sensitivity score (CCRF-HSB2): 0 | selective drug sensitivity score (COG-LL-355h): 2.6 | selective drug sensitivity score (LC4-1): 3.5 | selective drug sensitivity score (ALL-SIL): 0 | selective drug sensitivity score (NALM-16): 0 | selective drug sensitivity score (RPMI-8402): 0 | selective drug sensitivity score (KASUMI-9): 10.7 | selective drug sensitivity score (TMD5): 3.5 | selective drug sensitivity score (MHH-CALL-4): 3.9 | selective drug sensitivity score (KARPAS-45): 0 | selective drug sensitivity score (MHH-CALL-2): 0

O=S(=O)(c1cccc2c(O)nccc12)N1CCCNCC1 [Hydroxyfasudil] (top concentration 19000 nM)
selective drug sensitivity score (MHH-CALL-3): 3.88 | selective drug sensitivity score (MOLT-14): -0.92 | selective drug sensitivity score (COG-LL-402h): -0.92 | selective drug sensitivity score (P12-ICHIKAWA): -0.92 | selective drug sensitivity score (COG-LL-332h): -0.82 | selective drug sensitivity score (PF-382): -0.92 | selective drug sensitivity score (SEM cells): 0.08 | selective drug sensitivity score (NALM-6): -0.92 | selective drug sensitivity score (HAL-01): 1.38 | selective drug sensitivity score (CCRF-HSB2): 0.98 | selective drug sensitivity score (COG-LL-355h): -0.92 | selective drug sensitivity score (LC4-1): -0.92 | selective drug sensitivity score (ALL-SIL): -0.92 | selective drug sensitivity score (NALM-16): -0.92 | selective drug sensitivity score (RPMI-8402): -0.72 | selective drug sensitivity score (KASUMI-9): -0.12 | selective drug sensitivity score (TMD5): 5.68 | selective drug sensitivity score (MHH-CALL-4): -0.12 | selective drug sensitivity score (KARPAS-45): 0.48 | selective drug sensitivity score (MHH-CALL-2): 5.88

CONC(=O)c1ccccc1Nc1cc(Nc2cc(C)nn2C(C)C)ncc1Cl (top concentration 1000 nM)
selective drug sensitivity score (MHH-CALL-3): -0.94 | selective drug sensitivity score (MOLT-14): -0.94 | selective drug sensitivity score (COG-LL-402h): -0.94 | selective drug sensitivity score (P12-ICHIKAWA): -0.94 | selective drug sensitivity score (COG-LL-332h): -0.94 | selective drug sensitivity score (PF-382): -0.94 | selective drug sensitivity score (SEM cells): -0.94 | selective drug sensitivity score (NALM-6): 0.56 | selective drug sensitivity score (HAL-01): 2.96 | selective drug sensitivity score (CCRF-HSB2): -0.94 | selective drug sensitivity score (COG-LL-355h): 1.66 | selective drug sensitivity score (LC4-1): 3.36 | selective drug sensitivity score (ALL-SIL): 0.86 | selective drug sensitivity score (NALM-16): -0.94 | selective drug sensitivity score (RPMI-8402): -0.94 | selective drug sensitivity score (KASUMI-9): -0.94 | selective drug sensitivity score (TMD5): -0.94 | selective drug sensitivity score (MHH-CALL-4): -0.94 | selective drug sensitivity score (KARPAS-45): -0.94 | selective drug sensitivity score (MHH-CALL-2): -0.94

CCN(c1cc(-c2ccc(CN3CCOCC3)cc2)cc(C(=O)NCc2c(C)cc(C)[nH]c2=O)c1C)C1CCOCC1 [Tazemetostat] (top concentration 10000 nM)
selective drug sensitivity score (MHH-CALL-3): -0.08 | selective drug sensitivity score (MOLT-14): 0.32 | selective drug sensitivity score (COG-LL-402h): -0.08 | selective drug sensitivity score (P12-ICHIKAWA): 0.02 | selective drug sensitivity score (COG-LL-332h): -0.08 | selective drug sensitivity score (PF-382): -0.08 | selective drug sensitivity score (SEM cells): 2.42 | selective drug sensitivity score (NALM-6): -0.08 | selective drug sensitivity score (HAL-01): 3.82 | selective drug sensitivity score (CCRF-HSB2): 1.42 | selective drug sensitivity score (COG-LL-355h): -0.08 | selective drug sensitivity score (LC4-1): -0.08 | selective drug sensitivity score (ALL-SIL): 0.12 | selective drug sensitivity score (NALM-16): -0.08 | selective drug sensitivity score (RPMI-8402): 0.22 | selective drug sensitivity score (KASUMI-9): 0.92 | selective drug sensitivity score (TMD5): -0.08 | selective drug sensitivity score (MHH-CALL-4): -0.08 | selective drug sensitivity score (KARPAS-45): 1.32 | selective drug sensitivity score (MHH-CALL-2): 6.72
